Measured values reported in ChEMBL document CHEMBL5154823, “Amphiphilic cyclic peptide [W4KR5]-Antibiotics combinations as broad-spectrum antimicrobial agents” (Eur J Med Chem, 2022).
Activity calls are given as the source filed them. The rule behind the calls is not given here. Where a SMILES comes first, the peptide text is derived from it. Bridges are numbered along the chain shown (N, C = ends). [ ]: non-standard residue; d: D form. The star is where a group is joined. X1 = C[C@H](O)[C@H]1C(=O)N2C(C(=O)*)=C(S[C@@H]3CN[C@H](C(=O)N(C)C)C3)[C@@H](C)[C@H]12; X2 = CC[C@H](C)CCCCC(=O)*; Dab = NCC[C@H](N)C(=O)O

Columns and labels:
Klebsiella pneumoniae [1] = experiment: Antibacterial activity against imipenem resistant Klebsiella pneumoniae ATCC BAA 1705 assessed as reduction in microbial growth incubated for 24 hrs by microbroth dilution method; type: functional
Escherichia coli [2] = experiment: Antibacterial activity against Escherichia coli ATCC 25922 assessed as reduction in microbial growth incubated for 24 hrs by microbroth dilution method; type: functional
Pseudomonas aeruginosa [3] = experiment: Antibacterial activity against Pseudomonas aeruginosa ATCC 27883 assessed as reduction in microbial growth incubated for 24 hrs by microbroth dilution method; type: functional
Staphylococcus aureus [4] = experiment: Antibacterial activity against Methicillin resistant Staphylococcus aureus ATCC BAA -1556 assessed as reduction in microbial growth incubated for 24 hrs by microbroth dilution method; type: functional
Escherichia coli [5] = experiment: Antibacterial activity against carbapenem and NDM-1 positive resistant Escherichia coli ATCC BAA 2452 assessed as reduction in microbial growth incubated for 24 hrs by microbroth dilution method; type: functional
HEK293 [6] = experiment: Cytotoxicity against HEK293 cells assessed as effect on cell viability at 10 ug/ml incubated for 24 hrs by microplate reader analysis; type: toxicity, cell-based; conditions: human, hek293, 24 h, dose 10 µg/ml
[7] = Cytotoxicity against HEK293 cells assessed as effect on cell viability at 10 to 25 ug/ml incubated for 24 hrs by microplate reader analysis relative to control; type: toxicity, cell-based; conditions: human, at 10 to 25 µg/mL, dose 10-25 µg/ml, read-out: Activity
Staphylococcus aureus [8] = experiment: Antibacterial activity against Staphylococcus aureus ATCC 29213 assessed as reduction in microbial growth incubated for 24 hrs by microbroth dilution method; type: functional
HepaRG [9] = experiment: Cytotoxicity against human HepaRG cells assessed as assessed as reduction in cell viability at 50 to 150 ug/ml incubated for 24 hrs by microplate reader analysis relative to control; type: toxicity, cell-based; conditions: at 50 to 150 µg/mL, dose 50-150 µg/ml
Pseudomonas aeruginosa [10] = experiment: Antibacterial activity against carbapenem resistant Pseudomonas aeruginosa ATCC BAA 1744 assessed as reduction in microbial growth incubated for 24 hrs by microbroth dilution method; type: functional
Klebsiella pneumoniae [11] = experiment: Antibacterial activity against Klebsiella pneumoniae ATCC 13883 assessed as reduction in microbial growth incubated for 24 hrs by microbroth dilution method; type: functional
Cell membrane [12] = experiment: Induction of membrane disruption in Staphylococcus aureus ATCC BAA -1556 assessed as increase in PI positive cells at 4 times of MIC incubated for 2 hrs by Propidium iodide staining based FACS cytometry analysis relative to control; type: subcellular
Cell membrane [13] = experiment: Induction of membrane disruption in Pseudomonas aeruginosa ATCC BAA 1744 assessed as increase in PI positive cells at 4 times of MIC incubated for 2 hrs by Propidium iodide staining based FACS cytometry analysis relative to control; type: subcellular
HepaRG [14] = experiment: Cytotoxicity against human HepaRG cells assessed as assessed as reduction in cell viability at 10 ug/ml incubated for 24 hrs by microplate reader analysis; type: toxicity, cell-based; conditions: dose 10 µg/ml
[15] = Hemolytic activity in human Red blood cell incubated for 2 hrs by spectrophotometric analysis; type: toxicity, cell-based, Erythrocyte; conditions: red blood cells (erythrocytes)
Staphylococcus aureus [16] = experiment: Bactericidal activity against methicillin resistant Staphylococcus aureus ATCC BAA 1556 assessed as reduction in bacterial growth at MIC measured after 16 hrs by Time kill assay; type: functional, organism-based
Pseudomonas aeruginosa [17] = experiment: Bactericidal activity against Pseudomonas aeruginosa ATCC BAA 1744 assessed as decrease of bacterial growth at MIC measured after 24 hrs by Time kill assay; type: functional, organism-based
Cell membrane [18] = experiment: Induction of membrane disruption in Pseudomonas aeruginosa ATCC BAA 1744 assessed as increase in PI positive cells at MIC incubated for 2 hrs by Propidium iodide staining based FACS cytometry analysis relative to control
Escherichia coli [19] = experiment: Bactericidal activity against Escherichia coli ATCC BAA 2452 assessed as decrease of bacterial growth at MIC measured after 15 hrs by Time kill assay; type: functional, organism-based
Cell membrane [20] = experiment: Induction of membrane disruption in Staphylococcus aureus ATCC BAA -1556 assessed as increase in PI positive cells at MIC incubated for 2 hrs by Propidium iodide staining based FACS cytometry analysis relative to control
HEK293 [21] = experiment: Cytotoxicity against HEK293 cells assessed as effect on cell viability at 10 to 200 ug/ml incubated for 24 hrs by microplate reader analysis; type: toxicity, cell-based; conditions: human, hek293, 24 h, dose 10-200 µg/ml

| SMILES | MIC (Klebsiella pneumoniae [1]) [µg/mL] | MIC (Escherichia coli [2]) [µg/mL] | MIC (Pseudomonas aeruginosa [3]) [µg/mL] | MIC (Staphylococcus aureus [4]) [µg/mL] | further results |
| --- | --- | --- | --- | --- | --- |
| CCCCCCCCCC(=O)N[C@@H](Cc1c[nH]c2ccccc12)C(=O)N[C@H](CC(N)=O)C(=O)N[C@@H](CC(=O)O)C(=O)N[C@@H]1C(=O)NCC(=O)N[C@@H](CCCN)C(=O)N[C@@H](CC(=O)O)C(=O)N[C@H](C)C(=O)N[C@@H](CC(=O)O)C(=O)NCC(=O)N[C@H](CO)C(=O)N[C@@H]([C@H](C)CC(=O)O)C(=O)N[C@@H](CC(=O)c2ccccc2N)C(=O)O[C@@H]1C | 256 | > 128 | > 128 | – | – |
| CC[C@H](C)CCCCC(=O)N[C@@H](CCN)C(=O)N[C@H](C(=O)N[C@@H](CCN)C(=O)N[C@H]1CCNC(=O)[C@H]([C@@H](C)O)NC(=O)[C@H](CCN)NC(=O)[C@H](CCN)NC(=O)[C@H](CC(C)C)NC(=O)[C@@H](Cc2ccccc2)NC(=O)[C@H](CCN)NC1=O)[C@@H](C)O (X2-[Dab]T[Dab][Dab][Dab][dF]L[Dab][Dab]T; lactam 4-C) | 1 | 2 | 1 | 64 | – |
| C[C@H](O)[C@H]1C(=O)N2C(C(=O)NCCCC[C@@H]3NC(=O)[C@H](CCCNC(=N)N)NC(=O)[C@H](CCCNC(=N)N)NC(=O)[C@H](CCCNC(=N)N)NC(=O)[C@H](CCCNC(=N)N)NC(=O)[C@H](CCCNC(=N)N)NC(=O)[C@H](Cc4c[nH]c5ccccc45)NC(=O)[C@H](Cc4c[nH]c5ccccc45)NC(=O)[C@H](Cc4c[nH]c5ccccc45)NC(=O)[C@H](Cc4c[nH]c5ccccc45)NC3=O)=C(S[C@@H]3CN[C@H](C(=O)N(C)C)C3)[C@@H](C)[C@H]12 (cyclo(K(X1)WWWWRRRRR)) | 16 | 4 | 16 | 4 | MIC (Escherichia coli [5]): 8 µg/mL; Activity (HEK293 [6]): Non-Toxic; viability at 24 h [7]: 90%; MIC (Staphylococcus aureus [8]): 2 µg/mL; Activity (HepaRG [9]): 69%; MIC (Pseudomonas aeruginosa [10]): 16 µg/mL; MIC (Klebsiella pneumoniae [11]): 4 µg/mL; Activity (Cell membrane [12]): 29.6%; Activity (Cell membrane [13]): 26.4%; Activity (HepaRG [14]): Non-Toxic; HC50 at 2 h [15]: 255 µg/mL |
| O=C(O)c1cn(C2CC2)c2cc(N3CCNCC3)c(F)cc2c1=O [CIPROFLOXACIN] | – | 64 | – | – | – |
| CCC[C@@H]1C[C@@H](C(=O)N[C@@H]([C@H]2O[C@H](SC)[C@H](O)[C@@H](O)[C@H]2O)[C@H](C)Cl)N(C)C1 [CLINDAMYCIN] | 256 | – | > 128 | – | – |
| NC[C@H]1O[C@H](O[C@H]2[C@H](O)[C@@H](O[C@H]3O[C@H](CO)[C@@H](O)[C@H](N)[C@H]3O)[C@H](N)C[C@@H]2N)[C@H](O)[C@@H](O)[C@@H]1O [KANAMYCIN] | 64 | 32 | > 128 | > 128 | – |
| C[C@H]1COc2c(N3CCN(C)CC3)c(F)cc3c(=O)c(C(=O)O)cn1c23.C[C@H]1COc2c(N3CCN(C)CC3)c(F)cc3c(=O)c(C(=O)O)cn1c23.O [LEVOFLOXACIN] | 64 | 64 | – | > 128 | – |
| C[C@@H](O)[C@H]1C(=O)N2C(C(=O)O)=C(S[C@@H]3CN[C@H](C(=O)N(C)C)C3)[C@H](C)[C@H]12 [MEROPENEM] | – | 1 | 1 | 2 | Activity (Staphylococcus aureus [16]): Active; Activity (Pseudomonas aeruginosa [17]): Active; Activity (Cell membrane [18]): 14.7%; Activity (HEK293 [6]): Non-Toxic; MIC (Staphylococcus aureus [8]): 2 µg/mL; MIC (Pseudomonas aeruginosa [10]): 8 µg/mL; Activity (Escherichia coli [19]): Active; MIC (Klebsiella pneumoniae [11]): 1 µg/mL; Activity (Cell membrane [20]): 12.2%; Activity (Cell membrane [12]): 17.2%; Activity (HEK293 [21]): Non-Toxic; Activity (Cell membrane [13]): 22.1%; Activity (HepaRG [14]): Non-Toxic; HC50 at 2 h [15]: > 500 µg/mL |
| CN(C)[C@@H]1C(O)=C(C(N)=O)C(=O)[C@@]2(O)C(O)=C3C(=O)c4c(O)cccc4[C@@](C)(O)[C@H]3C[C@@H]12 [TETRACYCLINE] | 16 | 8 | 32 | 0.25 | – |
| NC[C@H]1O[C@H](O[C@H]2[C@H](O)[C@@H](O[C@H]3O[C@H](CO)[C@@H](O)[C@H](N)[C@H]3O)[C@H](N)C[C@@H]2N)[C@H](N)C[C@@H]1O [TOBRAMYCIN] | 16 | 8 | 0.5 | 0.5 | – |
| CN[C@H](CC(C)C)C(=O)N[C@H]1C(=O)N[C@@H](CC(N)=O)C(=O)N[C@H]2C(=O)N[C@H]3C(=O)N[C@H](C(=O)N[C@H](C(=O)O)c4cc(O)cc(O)c4-c4cc3ccc4O)[C@H](O)c3ccc(c(Cl)c3)Oc3cc2cc(c3O[C@@H]2O[C@H](CO)[C@@H](O)[C@H](O)[C@H]2O[C@H]2C[C@](C)(N)[C@H](O)[C@H](C)O2)Oc2ccc(cc2Cl)[C@H]1O [VANCOMYCIN] | 256 | 256 | 256 | – | – |
